{
  "source": "patent US20230414584A1",
  "about": "“ADMINISTRATION OF ANTIBIOTIC COMPOUNDS FOR THE TREATMENT OF STREPTOCOCCAL INFECTIONS FOR THE TREATMENT OF PSORIASIS” (CENTRE FOR DIGESTIVE DISEASES, priority 2017, published 2023)",
  "key": {"[1]": {"system": "extensive plaque psoriasis", "test": "Case report: treatment of psoriasis with Clofazimine, Rifampicin, Tinidazole, Enbrel (Example 4)", "format": "in vivo, human", "description": "It was at this time that antibiotics were added to the etanercept (Enbrel™)."}, "psoriasis of the scalp": {"system": "psoriasis of the scalp", "test": "Case report: treatment of psoriasis of the scalp in an adult with OCD using Metronidazole (Example 1)", "format": "in vivo, human", "excerpt": "A patient with Obsessive-Compulsive Personality Disorder (OCD) commenced treatment in April 2016 with two non-absorbable antibiotics (vancomycin and rifaximin), together with the absorbable Metronidazole. The aim was to suppress their gut bacteria to reduce the OCD."}},
  "data": [
    {"compound": "CN(Cc1cnc2nc(N)nc(N)c2n1)c1ccc(C(=O)N[C@@H](CCC(=O)O)C(=O)O)cc1", "note": "[Methotrexate]", "values": [
      {"measurement": "adverse effects", "setting": "[1]; person, steroid-dependent extensive psoriasis", "result": "unacceptable adverse effects"}
    ]},
    {"compound": "Cc1ncc([N+](=O)[O-])n1CCO", "note": "[Metronidazole]", "values": [
      {"measurement": "psoriasis of the scalp", "setting": "psoriasis of the scalp; patient, Metronidazole given with non-absorbable vancomycin and rifaximin from April 2016, by November of 2016", "result": "marked suppression of the psoriasis of the scalp"},
      {"measurement": "psoriasis of the scalp", "setting": "psoriasis of the scalp; same patient, by February of 2017", "result": "very little psoriasis left on the scalp"}
    ]},
    {"compound": "etanercept", "values": [
      {"measurement": "response of psoriasis on continued treatment", "setting": "[1]; in spite of many months of injections, before antibiotics were added", "result": "the response stalled"},
      {"measurement": "response of psoriasis", "setting": "[1]; person, before antibiotics were added", "result": "reduction of the surface area of their body covered by psoriasis plaque"}
    ]}
  ]
}
